Measured values published in ChEMBL document CHEMBL1127235, “1,1-diphenyl-3-dialkylamino-1-silacyclopentane derivatives: A new class of potent and selective 5-HT2A antagonists” (Bioorg Med Chem Lett, 1994).

Key:
Rattus norvegicus [1] = test: In vivo inhibitory activity against mescaline-induced head twitches of rat after pretreatment for 1 hour upon peroral administration; type: functional
Mus musculus [2] = test: In vivo inhibitory activity against mescaline-induced head twitches of mice after pretreatment for 15 hours upon peroral administration; type: functional; conditions: po
[3] = target: 5-hydroxytryptamine receptor 2A (Rattus norvegicus, UniProt P14842); test: In vitro binding affinity towards serotonin 5-HT2A receptor in rat cortical membranes using [3H]ketanserin as radioligand; type: cell membranes
Mus musculus [4] = test: In vivo inhibitory activity against mescaline-induced head twitches of mice after pretreatment for 1 hour upon subcutaneous administration; type: functional; conditions: sc
Mus musculus [5] = test: In vivo inhibitory activity against DOI-induced head twitches of mice after pretreatment for 15 hours upon peroral administration; type: functional
[6] = target: T1, Muscarinic acetylcholine receptor M4 (Homo sapiens, UniProt P08173); test: Binding affinity towards muscarinic receptor
T1 sequence (P08173 whole entry): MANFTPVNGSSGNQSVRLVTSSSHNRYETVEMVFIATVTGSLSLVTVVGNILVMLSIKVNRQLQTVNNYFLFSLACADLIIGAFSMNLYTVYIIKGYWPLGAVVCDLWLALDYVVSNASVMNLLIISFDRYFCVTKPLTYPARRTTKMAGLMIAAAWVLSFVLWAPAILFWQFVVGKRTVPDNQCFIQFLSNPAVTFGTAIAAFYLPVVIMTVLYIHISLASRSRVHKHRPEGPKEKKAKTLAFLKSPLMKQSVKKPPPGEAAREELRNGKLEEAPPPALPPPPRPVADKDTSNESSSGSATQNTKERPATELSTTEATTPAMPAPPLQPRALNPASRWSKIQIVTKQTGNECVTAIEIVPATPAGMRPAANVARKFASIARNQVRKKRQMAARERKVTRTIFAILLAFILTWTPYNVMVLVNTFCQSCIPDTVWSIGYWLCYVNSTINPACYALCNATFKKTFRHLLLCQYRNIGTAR

Histamine H1 receptor = Histamine H1 receptor (Homo sapiens, UniProt P35367); test: Binding affinity towards histamine H1 receptor
[7] = target: T2, Adrenergic receptor alpha-1 (Homo sapiens, UniProt P35348+P25100+P35368); test: Binding affinity towards Alpha-1 adrenergic receptor; type: protein assay
T2 sequence (P35348 whole entry): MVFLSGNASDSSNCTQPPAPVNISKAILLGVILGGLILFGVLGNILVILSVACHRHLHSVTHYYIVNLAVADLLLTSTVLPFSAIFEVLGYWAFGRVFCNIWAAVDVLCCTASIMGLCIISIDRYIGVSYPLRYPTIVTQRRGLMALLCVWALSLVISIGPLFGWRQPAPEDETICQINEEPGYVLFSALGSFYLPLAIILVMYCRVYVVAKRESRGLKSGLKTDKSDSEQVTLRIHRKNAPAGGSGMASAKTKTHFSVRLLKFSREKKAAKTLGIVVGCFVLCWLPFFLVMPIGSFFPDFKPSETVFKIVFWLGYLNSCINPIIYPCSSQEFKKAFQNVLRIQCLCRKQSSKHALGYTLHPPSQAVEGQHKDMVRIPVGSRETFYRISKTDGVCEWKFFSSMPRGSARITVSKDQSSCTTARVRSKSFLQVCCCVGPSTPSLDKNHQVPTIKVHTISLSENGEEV
T2 sequence (P25100 whole entry): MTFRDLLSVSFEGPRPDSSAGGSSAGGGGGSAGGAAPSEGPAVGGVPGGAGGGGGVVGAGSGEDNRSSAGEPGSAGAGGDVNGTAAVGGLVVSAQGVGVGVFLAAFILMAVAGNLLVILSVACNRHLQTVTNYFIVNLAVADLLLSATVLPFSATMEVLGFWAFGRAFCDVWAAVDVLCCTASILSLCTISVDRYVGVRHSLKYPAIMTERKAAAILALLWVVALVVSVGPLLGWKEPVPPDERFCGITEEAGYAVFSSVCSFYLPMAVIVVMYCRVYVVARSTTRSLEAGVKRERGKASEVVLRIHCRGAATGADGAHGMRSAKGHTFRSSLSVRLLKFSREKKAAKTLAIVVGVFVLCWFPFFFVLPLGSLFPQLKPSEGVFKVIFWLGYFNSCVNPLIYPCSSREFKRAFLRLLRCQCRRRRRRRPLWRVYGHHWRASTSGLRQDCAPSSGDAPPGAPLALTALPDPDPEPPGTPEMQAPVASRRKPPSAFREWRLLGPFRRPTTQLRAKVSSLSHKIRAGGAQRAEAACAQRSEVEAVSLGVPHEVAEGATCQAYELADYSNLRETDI
T2 sequence (P35368 whole entry): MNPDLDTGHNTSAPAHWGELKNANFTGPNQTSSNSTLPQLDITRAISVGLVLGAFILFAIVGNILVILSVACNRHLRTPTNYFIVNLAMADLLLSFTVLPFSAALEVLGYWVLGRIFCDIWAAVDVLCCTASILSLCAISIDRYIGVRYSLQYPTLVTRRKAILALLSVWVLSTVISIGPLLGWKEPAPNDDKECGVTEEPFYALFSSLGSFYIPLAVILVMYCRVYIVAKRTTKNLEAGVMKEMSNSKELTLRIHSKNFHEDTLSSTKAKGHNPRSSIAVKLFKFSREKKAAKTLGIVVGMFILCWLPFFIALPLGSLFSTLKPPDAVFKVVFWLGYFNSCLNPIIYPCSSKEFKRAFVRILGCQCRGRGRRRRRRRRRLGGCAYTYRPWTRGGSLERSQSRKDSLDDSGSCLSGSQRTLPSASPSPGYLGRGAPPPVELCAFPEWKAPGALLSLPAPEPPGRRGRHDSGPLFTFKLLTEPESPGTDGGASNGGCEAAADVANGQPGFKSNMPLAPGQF

Mus musculus [8] = test: In vivo inhibitory activity against DOI-induced head twitches of mice after pretreatment for 1 hour upon subcutaneous administration; type: functional
Rattus norvegicus [9] = test: In vivo inhibitory activity against mescaline-induced head twitches of rat after pretreatment for 6 hours upon peroral administration; type: functional
Rattus norvegicus [10] = test: In vivo inhibitory activity against mescaline-induced head twitches of rat after pretreatment for 1 hour upon subcutaneous administration; type: functional
D(2) dopamine receptor = D(2) dopamine receptor (Homo sapiens, UniProt P14416); test: Binding affinity towards dopamine D2 receptor
Rattus norvegicus [11] = test: In vivo inhibitory activity against mescaline-induced head twitches of rat after pretreatment for 16 hours upon peroral administration; type: functional
[12] = Rattus norvegicus, po, read-out: ED50

Sequence of 5-hydroxytryptamine receptor 2A (P14842 whole entry): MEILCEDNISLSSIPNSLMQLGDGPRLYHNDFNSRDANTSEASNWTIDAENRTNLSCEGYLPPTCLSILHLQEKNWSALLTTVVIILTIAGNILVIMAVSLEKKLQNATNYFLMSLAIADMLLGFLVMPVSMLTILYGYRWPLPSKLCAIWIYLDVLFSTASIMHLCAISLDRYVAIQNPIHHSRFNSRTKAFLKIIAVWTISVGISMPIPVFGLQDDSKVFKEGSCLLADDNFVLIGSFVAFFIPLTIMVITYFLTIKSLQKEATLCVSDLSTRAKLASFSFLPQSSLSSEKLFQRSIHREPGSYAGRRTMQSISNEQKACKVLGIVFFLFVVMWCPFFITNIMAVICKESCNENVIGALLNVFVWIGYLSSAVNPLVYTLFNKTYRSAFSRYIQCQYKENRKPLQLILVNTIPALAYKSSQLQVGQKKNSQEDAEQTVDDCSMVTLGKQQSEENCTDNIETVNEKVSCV
Sequence of D(2) dopamine receptor (P14416 whole entry): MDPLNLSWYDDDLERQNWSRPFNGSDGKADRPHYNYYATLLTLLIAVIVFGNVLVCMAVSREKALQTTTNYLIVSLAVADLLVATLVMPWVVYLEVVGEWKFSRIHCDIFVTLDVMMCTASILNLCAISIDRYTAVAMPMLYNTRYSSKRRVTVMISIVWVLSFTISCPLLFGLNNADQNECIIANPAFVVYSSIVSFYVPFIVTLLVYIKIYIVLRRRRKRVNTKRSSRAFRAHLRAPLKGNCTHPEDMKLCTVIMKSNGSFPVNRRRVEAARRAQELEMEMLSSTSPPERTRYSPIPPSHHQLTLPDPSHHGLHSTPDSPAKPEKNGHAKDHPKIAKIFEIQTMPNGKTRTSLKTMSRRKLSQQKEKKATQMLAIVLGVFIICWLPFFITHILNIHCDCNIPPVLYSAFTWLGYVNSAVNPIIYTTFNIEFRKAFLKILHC
Sequence of Histamine H1 receptor (P35367 whole entry): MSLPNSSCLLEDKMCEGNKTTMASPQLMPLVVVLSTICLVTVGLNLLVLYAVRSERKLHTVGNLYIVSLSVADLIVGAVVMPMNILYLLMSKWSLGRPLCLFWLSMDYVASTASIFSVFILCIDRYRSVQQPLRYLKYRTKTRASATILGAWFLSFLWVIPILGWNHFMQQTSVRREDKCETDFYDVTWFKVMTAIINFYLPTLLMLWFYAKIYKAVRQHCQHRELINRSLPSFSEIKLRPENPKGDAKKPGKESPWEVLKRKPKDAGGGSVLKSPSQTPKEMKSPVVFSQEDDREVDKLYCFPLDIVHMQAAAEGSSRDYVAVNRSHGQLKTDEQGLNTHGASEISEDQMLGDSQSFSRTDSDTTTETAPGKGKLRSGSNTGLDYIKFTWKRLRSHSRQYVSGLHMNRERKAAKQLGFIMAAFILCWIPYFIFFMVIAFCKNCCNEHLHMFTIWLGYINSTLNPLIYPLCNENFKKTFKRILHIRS

c1ccc(N2CCN(C3CC[Si](c4ccccc4)(c4ccccc4)C3)CC2)cc1 (stereo unspecified)
ED50 (Rattus norvegicus [1]; [12]): 84 mg/kg | ED50 (Mus musculus [2]): 45 mg/kg | IC50 [3]: 1 nM | ED50 (Mus musculus [4]): 68 mg/kg

Oc1ccc(N2CCN(C3CC[Si](c4ccccc4)(c4ccccc4)C3)CC2)cc1 (stereo unspecified)
IC50 [3]: 46 nM

c1ccc([Si]2(c3ccccc3)CCC(N3CCN(c4ncccn4)CC3)C2)cc1 (stereo unspecified)
IC50 [3]: 80 nM

Cc1ccc(N2CCN(C3CC[Si](c4ccccc4)(c4ccccc4)C3)CC2)cc1 (stereo unspecified)
IC50 [3]: 10 nM

Fc1ccc(C2=CCN(C3CC[Si](c4ccccc4)(c4ccccc4)C3)CC2)cc1 (stereo unspecified)
IC50 [3]: 14 nM

c1ccc([Si]2(c3ccccc3)CCC(N3CCN(c4ccccn4)CC3)C2)cc1 (stereo unspecified)
IC50 [3]: 29 nM

Fc1ccc(N2CCN(C3CC[Si](c4ccc(F)cc4)(c4ccc(F)cc4)C3)CC2)cc1 (stereo unspecified)
IC50 [3]: 18 nM

Fc1cccc(N2CCN(C3CC[Si](c4ccccc4)(c4ccccc4)C3)CC2)c1 (stereo unspecified)
IC50 [3]: 3.4 nM

c1ccc(C2CCN(C3CC[Si](c4ccccc4)(c4ccccc4)C3)CC2)cc1 (stereo unspecified)
IC50 [3]: 53 nM

Clc1ccc(N2CCN(C3CC[Si](c4ccccc4)(c4ccccc4)C3)CC2)cc1 (stereo unspecified)
IC50 [3]: 25 nM

Cc1cccc(N2CCN(C3CC[Si](c4ccccc4)(c4ccccc4)C3)CC2)c1 (stereo unspecified)
IC50 [3]: 33 nM

Fc1ccccc1N1CCN(C2CC[Si](c3ccccc3)(c3ccccc3)C2)CC1 (stereo unspecified)
IC50 [3]: 100 nM

Fc1ccc(N2CCN(C3CC[Si](c4ccccc4)(c4ccccc4)C3)CC2)cc1 (stereo unspecified)
ED50 (Mus musculus [2]): 15 mg/kg | IC50 [3]: 0.9 nM | ED50 (Mus musculus [4]): 10 mg/kg

Fc1ccc([Si]2(c3ccc(F)cc3)CCC(N3CCN(c4ccccc4)CC3)C2)cc1 (racemic)
ED50 (Mus musculus [5]): 0.59 mg/kg | IC50 [6]: > 1000 nM | IC50 (Histamine H1 receptor): > 1000 nM | ED50 (Rattus norvegicus [1]): 1.93 mg/kg | ED50 (Mus musculus [2]): 0.44 mg/kg | IC50 [7]: 86 nM | ED50 (Mus musculus [8]): 0.73 mg/kg | ED50 (Rattus norvegicus [9]): 0.48 mg/kg | IC50 [3]: 2 nM | ED50 (Rattus norvegicus [10]): 10 mg/kg | IC50 (D(2) dopamine receptor): 140 nM | ED50 (Rattus norvegicus [11]): 1.25 mg/kg | ED50 (Mus musculus [4]): 1.38 mg/kg

Fc1ccc([Si]2(c3ccccc3)CCC(N3CCN(c4ccccc4)CC3)C2)cc1 (single isomer, unassigned)
IC50 [3]: 20 nM

Fc1ccc([Si]2(c3ccc(F)cc3)CCC(N3CCN(c4ccccc4)CC3)C2)cc1 (single isomer, unassigned; (+))
ED50 (Mus musculus [5]): 0.62 mg/kg | IC50 [6]: > 1000 nM | IC50 (Histamine H1 receptor): > 1000 nM | ED50 (Rattus norvegicus [1]): 2.03 mg/kg | IC50 [7]: 100 nM | ED50 (Mus musculus [8]): 0.59 mg/kg | ED50 (Rattus norvegicus [9]; [12]): < 0.63 mg/kg | IC50 [3]: 3 nM | ED50 (Rattus norvegicus [10]): 1.56 mg/kg | IC50 (D(2) dopamine receptor): 100 nM | ED50 (Rattus norvegicus [11]; [12]): < 2.5 mg/kg

Fc1ccc([Si]2(c3ccc(F)cc3)CCC(N3CCN(c4ccccc4)CC3)C2)cc1 (single isomer, unassigned; (-))
ED50 (Mus musculus [5]): 10.5 mg/kg | ED50 (Rattus norvegicus [1]): 10.25 mg/kg | ED50 (Mus musculus [8]): >5 mg/kg | IC50 [3]: 25 nM | ED50 (Rattus norvegicus [10]): 10.25 mg/kg

Fc1ccc([Si]2(c3ccccc3)CCC(N3CCN(c4ccccc4)CC3)C2)cc1 (stereo in doubt)
IC50 [3]: 27 nM

Fc1ccc([Si]2(c3ccc(F)cc3)CCC(N3CCN(c4ccccc4)CC3)C2)cc1 (stereo in doubt)
IC50 [3]: 16 nM

Cc1nc2sccn2c(=O)c1CCN1CCC(=C(c2ccc(F)cc2)c2ccc(F)cc2)CC1 [RITANSERIN]
ED50 (Mus musculus [5]; Mus musculus, po, read-out: ED50): 0.08 mg/kg | ED50 (Mus musculus [2]): 0.09 mg/kg | ED50 (Mus musculus [8]; Mus musculus, sc, read-out: ED50): 0.05 mg/kg | ED50 (Rattus norvegicus [10]; Rattus norvegicus, sc, read-out: ED50): 0.38 mg/kg | ED50 (Rattus norvegicus [11]; [12]): 18.1 mg/kg | ED50 (Mus musculus [4]): 0.29 mg/kg
